Measured values reported in paper PMC3355094 (PLoS Pathogens, 2012).
Several values for one entry are separate records, joined by “and”; a condition that tells them apart may be missing. Equal values may be shown once.

Tests used:
CCL1 = test: Glycan array analysis of CCL1 (CFG mammalian glycan array V4.2); type: binding, Coprinopsis cinerea; conditions: Alexa Fluor 488 labeled CCL1 200 µg/ml, array V4.2, average of triplicates
Protocol: (§1) Purified CCL1 and CCL2 were fluorescently labeled with Alexa Fluor 488 (Invitrogen) according to the manufacturer's protocol and used (at a final concentration of 200 µg/ml) to probe versions 4.2 and 3.1, respectively, of the mammalian glycan array offered by Core H of the Consortium for Functional Glycomics (CFG).

CCL2 = test: Glycan array analysis of CCL2 (CFG mammalian glycan array V3.1); type: binding, Coprinopsis cinerea; conditions: for RFU (relative fluorescence units): Alexa Fluor 488 labeled CCL2 200 µg/ml, array V3.1, average of triplicates; for binding on glycan array (in words): fluorescently labeled CCL2 200 µg/ml, array V3.1
Protocol: as §1

Row | Compound | RFU (relative fluorescence units) (CCL1) | other results
1 | GalNAc-Sp15 | 148 RFU | 
2 | Fuc1-2Gal1-4(Fuc1-3)GlcNAc-Sp8 | 29 RFU | 
3 | [6OSO3]Gal1-4Glc–Sp0 |  | RFU (relative fluorescence units) (CCL2): 307.4 RFU
4 | [6OSO3]Gal1-4GlcNAc-Sp8 | 27 RFU | 
5 | Fuc1-2Gal1-3GalNAc-Sp8 | 70 RFU | 
6 | [3OSO3]Gal1-3(Fuc1-4)GlcNAc-Sp8 | 89 RFU | 
7 | [3OSO3]Gal1-4[6OSO3]Glc-Sp8 | 228 RFU | 
8 | GalNAc1-3(Fuc1-2)Gal-Sp18 | 19 RFU | 
9 | [3OSO3]Gal-Sp8 | 42 RFU | 
10 | [3OSO3]Gal1-4[6OSO3]Glc-Sp0 | 329 RFU | 
11 | Gal1-3(Fuc1-2)Gal1-3GlcNAc-Sp0 | 61 RFU | 
12 | Gal1-4GlcNAc1-3(Gal1-4GlcNAc1-6)GalNAc-Sp8 | 24 RFU | 
13 | -D-Gal–Sp8 |  | RFU (relative fluorescence units) (CCL2): 280.7 RFU and 194.7 RFU
14 | [9NAc]Neu5Ac2-6Gal1-4GlcNAc-Sp8 | 6 RFU | 
15 | Fuc1-2Gal1-4GlcNAc1-3Gal1-4GlcNAc1-3Gal1-4GlcNAc-Sp0 | 61 RFU | 
16 | Gal1-3(Fuc1-2)Gal1-4(Fuc1-3)GlcNAc-Sp0 | 46 RFU | 
17 | Fuc1-2Gal1-4GlcNAc1-3Gal1-4GlcNAc-Sp0 | 15 RFU | 
18 | [3OSO3]Gal1-4(6OSO3)Glc–Sp8 |  | RFU (relative fluorescence units) (CCL2): 1039.1 RFU
19 | Neu5Gc2-6Gal1-4GlcNAc-Sp8 |  | RFU (relative fluorescence units) (CCL2): 182.6 RFU
20 | Neu5Ac2-8Neu5Ac-Sp17 |  | RFU (relative fluorescence units) (CCL2): 155.0 RFU
21 | [3OSO3]Gal–Sp8 |  | RFU (relative fluorescence units) (CCL2): 75.5 RFU
22 | Fuc1-2Gal1-3GlcNAc1-3Gal1-4Glc-Sp8 | 1 RFU | 
23 | Gal1-3(Fuc1-2)Gal1-4(Fuc1-3)GlcNAc-Sp8 | 35 RFU | 
24 | [3OSO3]Gal1-4(6OSO3)Glc–Sp0 |  | RFU (relative fluorescence units) (CCL2): 151.3 RFU
25 | Neu5Ac-Sp8 | 113 RFU and 98 RFU | 
26 | -Neu5Ac–Sp8 |  | RFU (relative fluorescence units) (CCL2): 247.4 RFU
27 | (Gal1-4GlcNAc)2-3,6-GalNAc-Sp8 |  | RFU (relative fluorescence units) (CCL2): 397.4 RFU

Row | Compound | RFU (relative fluorescence units) (CCL1) | other results
28 | Gal1-4GlcNAc1-2Man1-3(Gal1-4GlcNAc1-2Man1-6)Man1-4GlcNAc1-4GlcNAc-Sp12 | 121 RFU | 
29 | CC(=O)N[C@H]1[C@H](O[C@H]2[C@H](O[C@@H]3O[C@@H](C)[C@@H](O)[C@@H](O)[C@@H]3O)[C@@H](NC(C)=O)C(O)O[C@@H]2CO)O[C@H](CO)[C@H](O)[C@@H]1O (stereo partly shown) [fucosylated LacdiNAc, GalNAcβ1,4[Fucα1,3]GlcNAc] |  | binding on glycan array (in words) (CCL2): binds; binding on glycan array (in words) (CCL2; listed as GalNAcβ1,4[Fucα1,3]GlcNAc): one of the best binders
30 | Neu5Ac2-6Gal1-4GlcNAc1-2Man1-3(Neu5Ac2-6Gal1-4GlcNAc1-2Man1-6)Man1-4GlcNAc1-4GlcNAc-Sp13 | 86 RFU | 
31 | Fuc1-2Gal1-3GalNAc1-4(Neu5Ac2-3)Gal1-4Glc-Sp9 | 20 RFU | 
32 | Fuc1-2Gal1-3GalNAc-Sp14 | 25 RFU | 
33 | 9NAcNeu5Ac-Sp8 |  | RFU (relative fluorescence units) (CCL2): 8595.4 RFU
34 | Neu5Ac-Sp11 | 247 RFU | 
35 | GalNAc1-4GlcNAc-Sp8 | 3 RFU | 
36 | CC(=O)N[C@H]1C(O)O[C@H](CO)[C@@H](O)[C@@H]1O[C@@H]1O[C@@H](C)[C@@H](O)[C@@H](O)[C@@H]1O (stereo partly shown) [Fucα1,3GlcNAc] |  | binding on glycan array (in words) (CCL2): very low fluorescence
37 | [3OSO3]Gal1-4GlcNAc–Sp0 |  | RFU (relative fluorescence units) (CCL2): 115.6 RFU
38 | [3OSO3]Gal1-3(Fuc1-4)GlcNAc–Sp8 |  | RFU (relative fluorescence units) (CCL2): 628.7 RFU
39 | [3OSO3]Gal1-3GlcNAc–Sp8 |  | RFU (relative fluorescence units) (CCL2): 403.9 RFU
40 | GalNAc1-3(Fuc1-2)Gal1-4GlcNAc-Sp0 | 82 RFU | 
41 | GalNAc1-3(Fuc1-2)Gal1-3GlcNAc-Sp0 | 100 RFU | 
42 | Fuc1-2Gal1-3GlcNAc-Sp8 | 18 RFU | 
43 | GalNAc1-3GalNAc-Sp8 | 7 RFU and 14 RFU | 
44 | Fuc1-2Gal1-3GlcNAc-Sp0 | 3 RFU | 
45 | Neu5Ac2-6Gal1-4GlcNAc1-2Man1-3(Neu5Ac2-6Gal1-4GlcNAc1-2Man1-6)Man1-4GlcNAc1-4GlcNAc-N(LT)AVL | 78 RFU | 
46 | -GlcNAc–Sp8 |  | RFU (relative fluorescence units) (CCL2): 160.7 RFU
47 | GalNAc1-3(Fuc1-2)Gal1-4GlcNAc-Sp8 | 25 RFU | 
48 | [3OSO3]Gal1-4(Fuc1-3)GlcNAc-Sp8 | 407 RFU | 
49 | GalNAc1-3(Fuc1-2)Gal1-4(Fuc1-3)GlcNAc-Sp0 | 75 RFU | 
50 | Fuc1-2Gal1-4Glc-Sp0 | 47 RFU | 
51 | [3OSO3]Gal1-4(Fuc1-3)Glc-Sp0 | 140 RFU | 
52 | Fuc1-2Gal1-4(Fuc1-3)GlcNAc-Sp0 | 10 RFU | 
53 | GalNAc1-3(Fuc1-2)Gal1-4Glc-Sp0 | 2 RFU | 
54 | Man1-3(Man1-6)Man1-4GlcNAc1-4GlcNAc-Sp12 | 84 RFU | 

Row | Compound | RFU (relative fluorescence units) (CCL1) | other results
55 | Fuc1-2Gal1-3GlcNAc1-3Gal1-4Glc-Sp10 | 20 RFU | 
56 | GalNAc1-3Gal-Sp8 | 8 RFU | 
57 | Fuc1-2Gal1-3GalNAc1-4(Neu5Ac2-3)Gal1-4Glc-Sp0 | 5 RFU | 
58 | Gal1-3(Fuc1-2)Gal1-3GlcNAc-Sp8 | 31 RFU | 
59 | C[C@@H]1O[C@@H](OCCCN)[C@@H](O)[C@H](O)[C@@H]1O [Fuc-Sp8] | 26 RFU | 
60 | [3OSO3]Gal1-3GlcNAc-Sp8 | 173 RFU | 
61 | CC(=O)N[C@H]1[C@H](OCCN)O[C@H](CO)[C@@H](O)[C@@H]1O [GlcNAc-Sp0] | 6 RFU | 
62 | NCCCO[C@@H]1O[C@H](CO)[C@@H](O)[C@H](O)[C@H]1NC(=O)CO [-GlcN(Gc)-Sp8, -GlcN(Gc)- Sp8] |  | RFU (relative fluorescence units) (CCL2): 136.2 RFU
63 | Gal1-3(Fuc1-2)Gal1-4GlcNAc-Sp0 | 41 RFU | 
64 | GalNAc1-3(Fuc1-2)Gal-Sp8 | 7 RFU and 8 RFU | 
65 | Fuc-Sp9 | -10 RFU | 
66 | NCCCO[C@@H]1O[C@H](CO)[C@@H](O)[C@H](O)[C@H]1NC(=O)CO [GlcN(Gc)-Sp8] | 32 RFU | 
67 | [3OSO3]Gal1-4(Fuc1-3)GlcNAc-Sp0 | 383 RFU | 
68 | Fuc1-2Gal1-4(Fuc1-3)GlcNAc1-3Gal1-4(Fuc1-3)GlcNAc-Sp0 | 54 RFU | 
69 | Fuc1-2Gal1-4(Fuc1-3)GlcNAc1-3Gal1-4(Fuc1-3)GlcNAc1-3Gal1-4(Fuc1-3)GlcNAc-Sp0 | 1835 RFU | 
70 | C[C@@H]1O[C@@H](OCCCN)[C@@H](O)[C@H](O)[C@@H]1O [-L-Fuc–Sp8] |  | RFU (relative fluorescence units) (CCL2): 416.6 RFU
71 | GlcNAc-Sp8 | 4 RFU | 
72 | [6OSO3]Gal1-4GlcNAc–Sp8 |  | RFU (relative fluorescence units) (CCL2): 133.9 RFU
73 | Fuc1-2Gal1-3(Fuc1-4)GlcNAc-Sp8 | 80 RFU | 
74 | Fuc1-2Gal1-3GalNAc1-3Gal1-4Gal1-4Glc-Sp9 | 76 RFU | 
75 | Fuc1-2Gal1-4GlcNAc-Sp0 | 52 RFU | 
76 | 9NAcNeu5Ac2-6Gal1-4GlcNAc-Sp8 |  | RFU (relative fluorescence units) (CCL2): 239.4 RFU
77 | [3OSO3]Gal1-4(Fuc1-3)[6OSO3]Glc-Sp0 | 250 RFU | 
78 | [6OSO3]GlcNAc–Sp8 |  | RFU (relative fluorescence units) (CCL2): 141.7 RFU
79 | Fuc1-2Gal-Sp8 | 12 RFU | 
80 | GalNAc1-3Gal1-4Gal1-4GlcNAc-Sp0 | 18 RFU | 
81 | Fuc1-2Gal1-4GlcNAc-Sp8 | 45 RFU | 

Row | Compound | RFU (relative fluorescence units) (CCL1) | other results
82 | [3OSO3]Gal1-4[6OSO3]GlcNAc-Sp0 | 293 RFU | 
83 | -Neu5Ac-Sp8 |  | RFU (relative fluorescence units) (CCL2): 122.4 RFU
84 | Gal-Sp8 | 99 RFU and 68 RFU | 
85 | [6OSO3]GlcNAc-Sp8 | 14 RFU | 
86 | [6OSO3]Gal1-4Glc-Sp0 | 23 RFU | 
87 | Neu5Ac2-8Neu5Ac2-8Neu5AcSp8 |  | RFU (relative fluorescence units) (CCL2): 66.6 RFU
88 | [3OSO3]Gal1-4(Fuc1-3)GlcNAc–Sp8 |  | RFU (relative fluorescence units) (CCL2): 265.1 RFU
89 | Fuc1-4GlcNAc-Sp8 | 62 RFU | 
90 | [9NAc]Neu5Ac-Sp8 | 27 RFU | 
91 | C[C@@H]1O[C@@H](OCCCN)[C@H](O)[C@H](O)[C@H]1O [-L-Rha-Sp8] |  | RFU (relative fluorescence units) (CCL2): 112.5 RFU
92 | [3OSO3]Gal1-4GlcNAc-Sp0 | 141 RFU | 
93 | Gal1-4GlcNAc1-2Man1-3(Gal1-4GlcNAc1-2Man1-6)Man1-4GlcNAc1- |  | RFU (relative fluorescence units) (CCL2): 575.8 RFU
94 | [3OSO3]Gal1-3GlcNAc-Sp0 | 93 RFU | 
95 | Fuc1-3GlcNAc-Sp8 | 30 RFU and 54 RFU | 
96 | [6OSO3]Gal1-4Glc-Sp8 | 9 RFU | 
97 | GalNAc1-4(Fuc1-3)GlcNAc-Sp0 | 7887 RFU | 
98 | Gal1-2Gal-Sp8 | 71 RFU | 
99 | GlcNAc1-3Gal1-3GalNAc-Sp8 | 11 RFU | 
100 | Neu5Ac2-3[6OSO3]Gal1-4GlcNAc-Sp8 | 3479 RFU | 
101 | GalNAc1-4(Fuc1-2)Gal1-4GlcNAc-Sp8 | 13 RFU | 
102 | GalNAc1-4GlcNAc-Sp0 | -11 RFU | 
103 | Fuc1-2Gal1-3GalNAc1-3Gal-Sp9 | 129 RFU | 
104 | C[C@@H]1O[C@@H](OCCCN)[C@H](O)[C@H](O)[C@H]1O [Rha-Sp8] | 46 RFU | 
105 | GlcNAc1-2Man1-3(GlcNAc1-2Man1-6)Man1-4GlcNAc1-4GlcNAc-Sp12 | 90 RFU | 
